Results on eight molecules are retold here after ChEMBL document CHEMBL1201862, “PubChem BioAssay data set” (2004).

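How tested: cells in 96-well plates exposed to compound for 48 hours at five concentrations. At the GI50, growth is halved.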 The source made the active and inactive calls. No stated cut-off is given here; in the data, active = GI50 up to about 1.1 µM and inactive = higher.

What all share (experiment): NCI-60 cell line screen, 48 h
Test [1] relates to CCRF-CEM.
In test [2] the test system is EKVX.
The test system of test [3] is HCC 2998.
In test [4] the test system is HL-60.
For test [5], the system named is HOP-62.
Test [6] deals with HOP-92.
For test [7], the system named is LOX IMVI.
Test [8] deals with MCF7.
Test [9] concerns MDA-N.
For test [10], the system named is NCI-H226.
For test [11], the system named is NCI-H460.
Test [12] deals with NCI-H522.
For test [13], the system named is OVCAR-5.
The subject of test [14] is RPMI-8226.
Test [15] relates to SF-268.
For test [16], the system named is SN12C.
The test system of test [17] is SR.
For test [18], the system named is SW-620.
The subject of test [19] is TK-10.
Test [20] deals with Hs-578T.

On to `Cc1cccc2sc(NC(=O)c3cc([N+](=O)[O-])ccc3Cl)nc12`, for which the GI50 in test [1] is 0.0817 µM (active); in test [2] it was 11.4 µM (inactive); in [3], 9.33 µM (inactive); in test [4] it was 72.9 µM (inactive); in test [5], 11.8 µM (inactive); in test [6], 2.77 µM (inactive). Moreover, the GI50 was 2.01 µM (inactive) in test [7]; 1.68 µM (inactive) in test [8]; 1.56 µM (inactive) in test [9]; 5.71 µM (inactive) in test [10]; 3.96 µM (inactive) in test [11]; 1.78 µM (inactive) in [12]. Also, the GI50 was 5.87 µM (inactive) in test [13]; 3.31 µM (inactive) in test [14]; 3.13 µM (inactive) in test [15]; 1.55 µM (inactive) in test [16]; > 100 µM (inactive) in test [17]; 2.42 µM (inactive) in [18]. For the same molecule, in test [19], the GI50 is 2.59 µM (inactive).
In the case of `CN(C)c1ccc(/C=c2/c3ccccc3n3c2cc(C24CC5CC(CC(C5)C2)C4)[n+]3C)cc1`, the GI50 in test [1] is 0.117 µM (active); in [2], 0.344 µM (active); in [3] it was 0.353 µM (active); in [4] it was 0.231 µM (active); in test [5], 0.411 µM (active); in test [6] it was 0.366 µM (active). Moreover, the GI50 in [7] was 0.326 µM (active); in test [8], 0.0615 µM (active); in test [9] it was 0.33 µM (active); in [10], 0.396 µM (active); in test [11], 0.313 µM (active); in test [12] it was 0.0923 µM (active). Besides, the GI50 in [13] is 0.409 µM (active); in test [14], 0.053 µM (active); in test [15], 0.555 µM (active); in [16] it was 0.324 µM (active); in [18] it was 0.148 µM (active); in test [19], 0.39 µM (active).
Regarding `N=C(N)NS(=O)(=O)c1ccc(Nc2c3ccccc3nc3c(C(=O)Nc4ccc(S(N)(=O)=O)cc4)ccc(Cl)c23)cc1`, the GI50 was > 100 µM (inactive) in test [2]; > 100 µM (inactive) in test [3]; 47.8 µM (inactive) in [4]; > 100 µM (inactive) in test [5]; > 100 µM (inactive) in [6]; > 100 µM (inactive) in test [7]. In addition, the GI50 in test [10], in test [11], in [12], in [13], in test [14] and in test [15] was > 100 µM (inactive) throughout. The GI50 in test [16], in test [17], in [18] and in test [19] was > 100 µM (inactive) in each case.
On to `C=C1C(=O)OC2C1CC[C@H](C)C13OC(=O)CC1[C@@]23C` (stereo partly specified), for which the GI50 in test [1], in test [2], in [3], in test [4], in test [6] and in test [10] was > 100 µM (inactive) throughout. Besides, the GI50 in [11] was > 100 µM (inactive); in test [12], 48.3 µM (inactive); in test [13], > 100 µM (inactive); in test [14] it was > 100 µM (inactive); in [15], > 100 µM (inactive); in test [16] it was > 100 µM (inactive). The GI50 in [17], in [18] and in [19] was > 100 µM (inactive) throughout.
For the molecule `O=C(NCCCCN(CCCNC(=O)C(F)(F)F)Cc1ccccc1)C(F)(F)F`, the GI50 in test [1], in test [2], in [3], in test [4], in test [5] and in test [6] was > 100 µM (inactive) in each case. The GI50 is > 100 µM (inactive) in [20]; > 100 µM (inactive) in test [8]; 35.4 µM (inactive) in test [10]; > 100 µM (inactive) in [11]; > 100 µM (inactive) in test [12]; > 100 µM (inactive) in test [13]. Besides, the GI50 in [14], in [15], in test [16], in test [18] and in test [19] was > 100 µM (inactive) throughout.
Turning to `CC(C)OP(=O)(OC(C)C)/C(=N/Nc1ccc([N+](=O)[O-])cc1)Nc1ccccc1`, the GI50 in [1] was 18.4 µM (inactive); in [2], 35.1 µM (inactive); in test [3] it was 49.5 µM (inactive); in test [4], 18.2 µM (inactive); in test [5], 29.7 µM (inactive); in test [6] it was 17.5 µM (inactive). Besides, the GI50 was 33.7 µM (inactive) in test [7]; 16.4 µM (inactive) in test [10]; 33 µM (inactive) in [11]; 17.9 µM (inactive) in test [12]; > 100 µM (inactive) in test [13]; 20.3 µM (inactive) in test [14]. The GI50 in [15] is 25 µM (inactive); in test [16], 48.6 µM (inactive); in [17], 16.6 µM (inactive); in test [18], 33 µM (inactive); in test [19], 12.4 µM (inactive).
On to `O=S1(=O)OCCOS(=O)(=O)C1(Br)Cc1ccccc1`, for which the GI50 in test [1], in test [2], in test [3], in test [4], in test [5] and in test [6] was > 100 µM (inactive) throughout. For the same molecule, the GI50 in test [7], in test [10], in [11], in test [12], in test [13] and in test [14] was > 100 µM (inactive) throughout. For the same molecule, the GI50 in [15], in [16], in test [17], in test [18] and in test [19] was > 100 µM (inactive) each time.
With `COc1ccc(Nc2nnc(CCCCCCCCc3nnc(Nc4ccc(OC)cc4)o3)o2)cc1`, the GI50 in test [1], in test [2], in test [3], in test [4], in test [5] and in [6] was > 100 µM (inactive) in each case. The GI50 in [7] is > 100 µM (inactive); in test [8] it was > 100 µM (inactive); in test [9], > 100 µM (inactive); in test [10] it was > 100 µM (inactive); in test [11], > 100 µM (inactive); in test [12], 61.7 µM (inactive). Besides, the GI50 in test [13], in [15], in test [16], in test [18] and in test [19] was > 100 µM (inactive) in each case.
